Each structure is given as a SMILES string.

Two compounds from publication PMC11015056 (ACS Infectious Diseases, 2024) can be followed below.

Assay [1] addresses T1, ParC^S87N/E91G N. gonorrhoeae topoisomerase IV (Neisseria gonorrhoeae, UniProt P48374, E91G/S87N).
T1 sequence (P48374 1-768 S87N/E91G): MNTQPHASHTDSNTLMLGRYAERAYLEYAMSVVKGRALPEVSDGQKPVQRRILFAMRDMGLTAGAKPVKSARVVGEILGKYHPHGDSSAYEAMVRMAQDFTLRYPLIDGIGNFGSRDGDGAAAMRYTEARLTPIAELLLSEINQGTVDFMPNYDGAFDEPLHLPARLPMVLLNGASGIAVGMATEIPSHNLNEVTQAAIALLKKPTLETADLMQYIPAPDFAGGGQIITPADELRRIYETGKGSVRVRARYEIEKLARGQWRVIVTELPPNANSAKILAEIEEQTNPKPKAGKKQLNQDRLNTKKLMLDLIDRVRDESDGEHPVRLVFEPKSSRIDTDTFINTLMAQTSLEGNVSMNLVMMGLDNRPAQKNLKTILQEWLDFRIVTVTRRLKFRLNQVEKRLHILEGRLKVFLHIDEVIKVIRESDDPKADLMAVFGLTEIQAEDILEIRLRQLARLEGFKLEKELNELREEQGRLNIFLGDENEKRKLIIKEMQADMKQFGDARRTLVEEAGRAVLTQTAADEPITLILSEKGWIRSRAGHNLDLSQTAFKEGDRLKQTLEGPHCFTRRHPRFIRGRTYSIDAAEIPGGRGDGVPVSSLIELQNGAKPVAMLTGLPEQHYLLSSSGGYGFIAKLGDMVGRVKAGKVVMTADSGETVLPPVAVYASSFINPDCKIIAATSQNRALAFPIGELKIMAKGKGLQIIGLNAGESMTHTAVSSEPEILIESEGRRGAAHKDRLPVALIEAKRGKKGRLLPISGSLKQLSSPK
Put plainly: Topoisomerase IV-catalyzed DNA decatenation, ParC S87N/E91G. The class given is biochemical.

Assay [2] addresses T2, ParC^S87N N. gonorrhoeae topoisomerase IV (Neisseria gonorrhoeae, UniProt P48374, S87N).
T2 sequence (P48374 1-768 S87N): T1 sequence (P48374 1-768 S87N/E91G)
Kind of assay: Topoisomerase IV-catalyzed DNA decatenation, ParC S87N. The class given is biochemical.

In assay [3] the target is T3, ParC^E91G N. gonorrhoeae topoisomerase IV (Neisseria gonorrhoeae, UniProt P48374, E91G).
T3 sequence (P48374 1-768 E91G): T1 sequence (P48374 1-768 S87N/E91G)
Put plainly: Topoisomerase IV-catalyzed DNA decatenation, ParC E91G. The class given is biochemical.

The target of assay [4] is WT N. gonorrhoeae topoisomerase IV (Neisseria gonorrhoeae, UniProt P48374). Put plainly: Topoisomerase IV-catalyzed DNA decatenation, WT. Type of assay: biochemical. The protocol:
DNA decatenation assays were based on previously published protocols by Anderson et al.[79] and Aldred et al.[30] Assays contained 10 nM WT, 20 nM ParC^S87N, 35 nM ParC^E91G, or 35 nM ParC^S87N/E91GN. gonorrhoeae topoisomerase IV, 5 nM kDNA, and 1 mM ATP in 20 μL of 40 mM HEPES-KOH (pH 7.6), 25 mM NaCl, 100 mM KGlu, and 10 mM Mg(OAc)2. Assay mixtures were incubated at 37 °C for 10 min with WT, 15 min with ParC^S87N, and 30 min with ParC^E91G and ParC^S87N/E91GN. gonorrhoeae topoisomerase IV, which represents the minimum time required to completely decatenate the kDNA in the absence of a drug. Reactions were stopped, subjected to electrophoresis, and visualized as described for gyrase-catalyzed DNA supercoiling.

The target of assay [5] is T4, GyrA^S91F/D95G N. gonorrhoeae gyrase (Neisseria gonorrhoeae, UniProt P22118+P48371, D95G/S91F).
T4 construct: His-tag; purchased GenScript
T4 sequence (P48371 whole entry, looked up, stated change not applied): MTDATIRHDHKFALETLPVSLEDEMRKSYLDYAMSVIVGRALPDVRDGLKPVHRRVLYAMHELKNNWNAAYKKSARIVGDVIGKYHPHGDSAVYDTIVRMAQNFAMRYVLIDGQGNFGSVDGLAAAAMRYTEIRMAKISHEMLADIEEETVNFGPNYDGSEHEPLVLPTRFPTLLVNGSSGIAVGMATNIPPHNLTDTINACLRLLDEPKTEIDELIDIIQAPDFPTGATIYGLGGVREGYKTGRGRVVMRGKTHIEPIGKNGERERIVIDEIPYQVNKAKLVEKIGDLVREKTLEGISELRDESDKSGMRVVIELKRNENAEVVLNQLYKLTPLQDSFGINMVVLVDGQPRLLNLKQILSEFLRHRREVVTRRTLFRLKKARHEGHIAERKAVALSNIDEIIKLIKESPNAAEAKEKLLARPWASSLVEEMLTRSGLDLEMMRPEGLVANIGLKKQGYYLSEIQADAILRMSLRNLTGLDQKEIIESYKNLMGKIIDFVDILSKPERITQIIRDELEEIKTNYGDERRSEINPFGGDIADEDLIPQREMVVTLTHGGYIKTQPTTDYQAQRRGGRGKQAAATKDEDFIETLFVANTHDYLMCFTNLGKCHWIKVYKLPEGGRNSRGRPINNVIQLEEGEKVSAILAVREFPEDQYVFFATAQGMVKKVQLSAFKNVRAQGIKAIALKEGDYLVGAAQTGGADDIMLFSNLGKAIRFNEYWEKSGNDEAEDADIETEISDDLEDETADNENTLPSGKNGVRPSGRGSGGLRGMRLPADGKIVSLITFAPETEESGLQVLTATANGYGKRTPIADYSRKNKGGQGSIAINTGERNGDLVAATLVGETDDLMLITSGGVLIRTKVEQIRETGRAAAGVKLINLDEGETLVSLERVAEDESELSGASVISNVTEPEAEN
T4 sequence (P22118 whole entry, stated change not applied): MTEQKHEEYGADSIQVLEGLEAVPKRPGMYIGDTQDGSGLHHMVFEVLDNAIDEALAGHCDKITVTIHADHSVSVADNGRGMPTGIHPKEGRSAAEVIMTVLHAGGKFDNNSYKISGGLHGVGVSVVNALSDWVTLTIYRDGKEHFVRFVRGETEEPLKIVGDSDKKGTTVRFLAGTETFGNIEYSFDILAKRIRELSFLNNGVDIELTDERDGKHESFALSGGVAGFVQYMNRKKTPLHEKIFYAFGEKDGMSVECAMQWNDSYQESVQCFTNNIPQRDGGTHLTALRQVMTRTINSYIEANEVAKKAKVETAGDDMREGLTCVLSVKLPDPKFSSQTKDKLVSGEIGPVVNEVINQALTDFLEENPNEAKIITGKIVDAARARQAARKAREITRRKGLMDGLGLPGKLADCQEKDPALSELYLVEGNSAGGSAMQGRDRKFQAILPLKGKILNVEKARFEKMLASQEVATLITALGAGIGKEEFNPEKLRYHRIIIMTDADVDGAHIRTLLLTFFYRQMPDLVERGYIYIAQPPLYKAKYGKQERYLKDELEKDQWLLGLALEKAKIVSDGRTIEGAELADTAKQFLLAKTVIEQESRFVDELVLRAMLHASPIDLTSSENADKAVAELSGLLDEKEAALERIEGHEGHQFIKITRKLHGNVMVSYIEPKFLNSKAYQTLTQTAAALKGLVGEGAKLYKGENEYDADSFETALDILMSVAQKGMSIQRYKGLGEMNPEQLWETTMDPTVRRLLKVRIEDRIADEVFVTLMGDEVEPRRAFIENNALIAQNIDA
Put plainly: Gyrase-catalyzed DNA supercoiling, GyrA S91F/D95G gyrase. The class given is biochemical. As to conditions: ± standard error of the mean, read-out: IC50, inhibition of DNA supercoiling.

The next assay addresses WT N. gonorrhoeae gyrase (Neisseria gonorrhoeae, UniProt P22118+P48371). Put plainly: Gyrase-mediated DNA cleavage, WT gyrase. The settings on record: GyrA WT; induced by 8-methyl-2,4-quinazolinedione.

Chain of WT N. gonorrhoeae gyrase (P48371 whole entry): as the sequence (P48371 whole entry, looked up, stated change not applied) above
Chain of WT N. gonorrhoeae gyrase (P22118 whole entry): as the sequence (P22118 whole entry, stated change not applied) above

`O=C(O)c1cn(C2CC2)c2cc(N3CCNCC3)c(F)cc2c1=O` [Ciprofloxacin]: the IC50 in assay [1] is above 500 µM; in assay [2] it was 16.4 µM; in assay [3], 301 ± 23.8 µM; in assay [4], 13.7 µM.

Turning to `Cc1c(N2CC[C@@H](CN)C2)c(F)cc2c(=O)n(N)c(=O)n(C3CC3)c12` [8-Me-2,4-QD, 3-Amino-7-[(3S)-3-(aminomethyl)-1-pyrrolidinyl]-1-cyclopropyl-6-fluoro-8-methyl-2,4(1H,3H)-quinazolinedione], in assay [5], the IC50 was 19.7 µM. Also, on WT N. gonorrhoeae gyrase, the “Max % DSB” value was found to be 28.9%.
